Test results published in patent US20180310561A1 (priority 2015, published 2018).

Columns and labels:
Botrytis cinerea = test: Activity against the grey mold Botrytis cinerea in the microtiterplate test; type: cell-based; conditions: relative growth vs active compound-free control (100%), MTP measured at 405 nm 7 days after inoculation
Septoria tritici = test: Activity against leaf blotch on wheat caused by Septoria tritici (microtiter plate); type: cell-based; conditions: relative growth vs active compound-free control (100%), MTP measured at 405 nm 7 days after inoculation
Leptosphaeria nodorum = test: Activity against wheat leaf spots caused by Leptosphaeria nodorum (microtiter plate); type: cell-based; conditions: relative growth vs active compound-free control (100%), MTP measured at 405 nm 7 days after inoculation
Pyricularia oryzae = type: cell-based; conditions: relative growth vs active compound-free control (100%), MTP measured at 405 nm 7 days after inoculation
Alternaria solani = test: Activity against early blight caused by Alternaria solani (microtiter plate); type: cell-based; conditions: relative growth vs active compound-free control (100%), MTP measured at 405 nm 7 days after inoculation
Fusarium culmorum = test: Green house: control of culm rot on pearl millet caused by Fusarium culmorum; type: in vivo; conditions: 63 ppm spray on pearl millet seedlings; inoculated 7 days later; % diseased leaf area assessed after 6 days; untreated control 90
Method: The spray solutions were prepared in several steps:
The stock solution were prepared: a mixture of acetone and/or dimethylsulfoxide and the wetting agent/emulsifier Wettol, which is based on ethoxylated alkylphenoles, in a relation (volume) solvent-emulsifier of 99 to 1 was added to 25 mg of the compound to give a total of 5 ml. Water was then added to total volume of 100 ml.
This stock solution was diluted with the described solvent-emulsifier-water mixture to the given concentration.
Pot-grown pearl millet seedlings were sprayed to run-off with an aqueous suspension, containing the concentration of active ingredient or their mixture as described below.The plants were allowed to air-dry. Seven days later the plants were inoculated with an spore suspension of Fusarium culmorum in a aqueous biomalt solution. Then the trial plants were immediately transferred to a humid chamber. After 6 days at 23-25° C. and a relative humidity close to 100% the extent of fungal attack on the leaves was visually assessed as % diseased leaf area.

In the case of `Cc1ccc(C2=CC(C)(C)Cc3ccccc32)cc1C`, the “Growth (%) at 32 ppm Botottis cinerea” value (Botrytis cinerea) is reported as 84% and the “Growth (%) at 32 ppm Septona triad” value (Septoria tritici) is reported as 93%.
For `Cc1cc(C2=NC(C)(C)Cc3ccccc32)cnc1C`, the “Growth (%) at 31 ppm Leptosphaeria nodorum” value (Leptosphaeria nodorum) was 72%, the “Growth (%) at 31 ppm Pyricularia” value (Pyricularia oryzae) was 23% and the “Growth (%) at 31 ppm Alternaria solanioryzae” value (Alternaria solani) was 47%.
For `Cc1cc(C2=NC(C)(C)Cc3c(Br)cccc32)cnc1C` [I-1, 5-Bromo-1-(5,6-dimethyl-3-pyridyl)-3,3-dimethyl-4H-isoquinoline], the “Growth (%) at 32 ppm Botottis cinerea” value (Botrytis cinerea) was 0%, the “Disease (%) at 63 ppm” value (Fusarium culmorum) was 53% and the “Growth (%) at 32 ppm Septona triad” value (Septoria tritici) was 0%.
For `Cc1cc(C2=NC(C)(C)Cc3c(F)cccc32)cnc1C` [drawing 1380], the “Growth (%) at 31 ppm Leptosphaeria nodorum” value (Leptosphaeria nodorum) was 39%.
With `Cc1cc(C2=NC(C)(C)Cc3c(F)cccc32)cnc1C` [drawing 1382] the “Disease (%) at 63 ppm” value (Fusarium culmorum) was 88%.
